Results taken from US10322107B2, “N-methyl-N-(1-phenyl-2-(1-pyrrolidinyl)ethyl)-2-aminophenylacetamide derivatives agonists for the kappa opioid receptor” (Nektar Therapeutics, priority 2014, dated 2019).
Where two headings read alike, the source gives them in different places.

What was measured:
[1] = molecular target: T1, recombinant human mu (MOR) opioid receptor (Homo sapiens, UniProt P35372); test: Competitive radioligand binding at MOR ([3H]naloxone), single concentration, CHO-K1 membranes; details: 10 μM test compound; percent inhibition of specific [3H]naloxone (4 nM) binding; read-out: Mu Opioid Receptor Mu Receptor Inhibition % inhib @ 10 uM
T1 construct: expressed in transfected cells; host or cells: CHO-K1 cells (membranes)
Procedure: The binding affinities of certain compounds of the present invention were evaluated using radioligand binding assays in membranes prepared from CHO-K1 cells expressing recombinant human kappa (KOR) or mu (MOR) opioid receptors.
Competition binding experiments were conducted by incubating membrane protein to equilibrium in triplicate in the presence of a fixed concentration of radioligand and increasing concentrations of test compound for evaluation of binding to KOR or single concentration (10 μM) of test compound for evaluation of binding to MOR in 101 μL final volume. The radioligands used were specific for each receptor type, and the assay conditions are described in Table 1. Following incubations, the membranes were rapidly filtered through GF/B filter plate (presoaked with 0.5% polyethyleneimine), washed five times with cold 50 mM Tris-HCl, pH 7.5, and the bound radioactivity was then measured by liquid scintillation counting. Non-specific binding was measured in the presence of excess ligand; this value was subtracted from the total binding to yield the specific binding at each test concentration.
Ki (affinity of test compound) was obtained using the Cheng Prusoff correction using experimental Kd (affinity of radioligand) values that were previously determined under these assay conditions. For MOR binding, compounds were tested at one concentration, 10 μM, to evaluate its ability to inhibit specific radioligand binding. The values are expressed as percent inhibition of specific binding and greater than 50% inhibition of binding was considered to be significant.

[2] = molecular target: recombinant human kappa (KOR) opioid receptor (Homo sapiens, UniProt P41145); test: Competitive radioligand binding at KOR ([3H]diprenorphine), CHO-K1 membranes
[3] = molecular target: T2, KOR (kappa opioid receptor) (Homo sapiens, UniProt P41145); test: Inhibition of cAMP accumulation in forskolin-stimulated CHO-K1 cells stably expressing KOR; type: cell-based
T2 construct: expressed in transfected cells

[4] = Cheng Prusoff correction using experimental Kd of radioligand, read-out: Kappa Opioid Receptor Ki
[5] = read-out: Kappa Opioid Receptor IC50

Structure (SMILES) | inhibition at 10 µM [1] [%] | Ki [2, 4] [nM] | IC50 [2, 5] [nM] | EC50 [3] [nM] | IC50 [2] [nM] | IC50 ([2]; inhibition of specific [3H]diprenorphine (1 nM) binding, one experiment in triplicate, read-out: Kappa Opioid Receptor IC50) [nM] | Ki [2] [nM]
CN(C(=O)Cc1ccc(Cl)c(Cl)c1)[C@H](CN1CCCC1)c1cccc(NS(=O)(=O)c2ccc(C#N)c(C(F)(F)F)c2)c1 [Example 1, (S)—N-(1-(3-(4-cyano-3-(trifluoromethyl)phenylsulfonamido)phenyl)-2-(pyrrolidin-1-yl)ethyl)-2-(3,4-dichlorophenyl)-N-methylacetamide] | 89 | 4.84 | 37.1 | 2 | – | – | –
CN(C(=O)Cc1ccc(Cl)c(Cl)c1)[C@H](CN1CCCC1)c1cccc(NS(=O)(=O)c2cn(C)c(=O)n(C)c2=O)c1 [Example 2, (S)-2-(3,4-dichlorophenyl)-N-(1-(3-(1,3-dimethyl-2,4-dioxo-1,2,3,4-tetrahydropyrimidine-5-sulfonamido)phenyl)-2-(pyrrolidin-1-yl)ethyl)-N-methylacetamide] | 87.1 | 0.7 | 5.36 | 0.311 | – | – | –
CN(C(=O)Cc1ccc(Cl)c(Cl)c1)[C@H](CN1CCCC1)c1cccc(NS(=O)(=O)c2ccc(Cl)nc2)c1 [Example 3, (S)—N-(1-(3-(6-chloropyridine-3-sulfonamido)phenyl)-2-(pyrrolidin-1-yl)ethyl)-2-(3,4-dichlorophenyl)-N-methylacetamide] | 94.2 | 0.36 | 2.79 | 0.29 | – | – | –
CN(C(=O)Cc1ccc(Cl)c(Cl)c1)[C@H](CN1CCCC1)c1cccc(NS(=O)(=O)c2cccnc2Cl)c1 [Example 4, (S)—N-(1-(3-(2-chloropyridine-3-sulfonamido)phenyl)-2-(pyrrolidin-1-yl)ethyl)-2-(3,4-dichlorophenyl)-N-methylacetamide] | 91.8 | 6.48 | 49.7 | 1.75 | – | – | –
CN(C(=O)Cc1ccc(Cl)c(Cl)c1)[C@H](CN1CCCC1)c1cccc(NS(=O)(=O)c2cn(C)nc2C(F)(F)F)c1 [Example 5, (S)-2-(3,4-dichlorophenyl)-N-methyl-N-(1-(3-(1-methyl-3-(trifluoromethyl)-1H-pyrazole-4-sulfonamido)phenyl)-2-(pyrrolidin-1-yl)ethyl)acetamide] | 97 | 1.01 | 7.74 | 1.35 | – | – | –
Cc1noc(C)c1S(=O)(=O)Nc1cccc([C@@H](CN2CCCC2)N(C)C(=O)Cc2ccc(Cl)c(Cl)c2)c1 [Example 6, (S)-2-(3,4-dichlorophenyl)-N-(1-(3-(3,5-dimethylisoxazole-4-sulfonamido)phenyl)-2-(pyrrolidin-1-yl)ethyl)-N-methylacetamide] | 84.6 | 0.39 | 3.01 | 1.15 | – | – | –
COCCN(C)S(=O)(=O)Nc1cccc([C@@H](CN2CCCC2)N(C)C(=O)Cc2ccc(Cl)c(Cl)c2)c1 [Example 7] | 99.9 | 0.09 | 0.67 | 0.19 | – | – | –
CC(O)CS(=O)(=O)Nc1cccc([C@@H](CN2CCCC2)N(C)C(=O)Cc2ccc(Cl)c(Cl)c2)c1 (stereo partly drawn) [Example 8, 2-(3,4-dichlorophenyl)-N-((1S)-1-(3-(2-hydroxypropylsulfonamido)phenyl)-2-(pyrrolidin-1-yl)ethyl)-N-methylacetamide] | 99 | 0.05 | 0.35 | 0.06 | – | – | –
COCCN(CCOC)S(=O)(=O)Nc1cccc([C@@H](CN2CCCC2)N(C)C(=O)Cc2ccc(Cl)c(Cl)c2)c1 [Example 9, (S)—N-(1-(3-((N,N-bis(2-methoxyethyl)sulfamoyl)amino)phenyl)-2-(pyrrolidin-1-yl)ethyl)-2-(3,4-dichlorophenyl)-N-methylacetamide] | 101 | 0.47 | 3.58 | 0.5 | – | – | –
CN(C(=O)Cc1ccc(Cl)c(Cl)c1)[C@H](CN1CCCC1)c1cccc(NS(=O)(=O)c2cc(Cl)c(Cl)s2)c1 [Example 10, (S)-2-(3,4-dichlorophenyl)-N-(1-(3-(4,5-dichlorothiophene-2-sulfonamido)phenyl)-2-(pyrrolidin-1-yl)ethyl)-N-methylacetamide] | 95.9 | 1.25 | 9.61 | 3.74 | – | – | –
CN(C(=O)C(c1ccccc1)c1ccccc1)[C@H](CN1CCCC1)c1cccc(NS(=O)(=O)CCOCC(F)(F)F)c1 [Example 11, (S)—N-methyl-2,2-diphenyl-N-(2-(pyrrolidin-1-yl)-1-(3-(2-(2,2,2-trifluoroethoxy)ethylsulfonamido)phenyl)ethyl)acetamide] | 57.6 | 45 | 345 | 28.8 | – | – | –
CC(O)CS(=O)(=O)Nc1cccc([C@@H](CN2CCCC2)N(C)C(=O)C(c2ccccc2)c2ccccc2)c1 (stereo partly drawn) [Example 12, N-((1S)-1-(3-(2-hydroxypropylsulfonamido)phenyl)-2-(pyrrolidin-1-yl)ethyl)-N-methyl-2,2-diphenylacetamide] | 47 | 48.8 | 374 | 18.5 | – | – | –
CC(O)CS(=O)(=O)Nc1cccc([C@@H](CN2CCCC2)N(C)C(=O)Cc2ccc(C(F)(F)F)cc2)c1 (stereo partly drawn) [Example 13, N-((1S)-1-(3-(2-hydroxypropylsulfonamido)phenyl)-2-(pyrrolidin-1-yl)ethyl)-N-methyl-2-(4-(trifluoromethyl)phenyl)acetamide] | 95.4 | 0.1 | 0.75 | 0.067 | – | – | –
CN(C(=O)Cc1ccc(F)cc1F)[C@H](CN1CC[C@H](O)C1)c1ccc(OCCO)cc1 [Example 15, 2-(2,4-Difluorophenyl)-N-{(1S)-1-[4-(2-hydroxyethoxy)phenyl]-2-[(3S)-3-hydroxypyrrolidin-1-yl]ethyl}-N-methylacetamide] | 23.5 | 0.69 | 5.27 | 0.164 | – | – | –
Cc1ccc(CC(=O)N(C)[C@H](CN2CC[C@H](O)C2)c2ccc(OCCO)cc2)cn1 [Example 16, N-{(1S)-1-[4-(2-Hydroxyethoxy)phenyl]-2-[(3S)-3-hydroxypyrrolidin-1-yl]ethyl}-N-methyl-2-(6-methylpyridin-3-yl)acetamide] | 28.4 | 1.34 | 10.3 | 0.294 | – | – | –
CN(C(=O)Cc1nccs1)[C@H](CN1CC[C@H](O)C1)c1ccc(OCCO)cc1 [Example 18, N-{(1S)-1-[4-(2-Hydroxyethoxy)phenyl]-2-[(3S)-3-hydroxypyrrolidin-1-yl]ethyl}-N-methyl-2-(1,3-thiazol-2-yl)acetamide] | -3.2 | 17.6 | – | 4.67 | 135 | – | –
CN(C(=O)Cc1ccc(F)cc1F)[C@H](CN1CC[C@H](OCCO)C1)c1ccc(OCCO)cc1 [Example 20, 2-(2,4-difluorophenyl)-N—((S)-1-(4-(2-hydroxyethoxy)phenyl)-2-((S)-3-(2-hydroxyethoxy)pyrrolidin-1-yl)ethyl)-N-methylacetamide] | -29.4 | 7490 | – | 2670 | – | 57400 | –
CN(C(=O)Cc1ccc(F)c(F)c1)[C@H](CN1CC[C@H](OCCO)C1)c1ccc(OCCO)cc1 [Example 21, 2-(3,4-Difluorophenyl)-N-{(1S)-1-[4-(2-hydroxyethoxy)phenyl]-2-[(3S)-3-(2-hydroxyethoxy)pyrrolidin-1-yl]ethyl}-N-methylacetamide] | 0 | – | – | 33.3 | 1450 | – | 189
CN([C@H](CN1CC[C@H](O)C1)c1ccc(OCCO)cc1)S(=O)(=O)Cc1ccc(Cl)c(Cl)c1 [Example 22, 1-(3,4-Dichlorophenyl)-N-{(1S)-1-[4-(2-hydroxyethoxy)phenyl]-2-[(3S)-3-hydroxypyrrolidin-1-yl]ethyl}-N-methylmethanesulfonamide] | -10.3 | 32.2 | 247 | 15.5 | – | – | –
CN([C@H](CN1CC[C@H](O)C1)c1ccc(OCCO)cc1)S(=O)(=O)Cc1ccc(C(F)(F)F)cc1 [Example 23, N-{(18)-1-[4-(2-Hydroxyethoxy)phenyl]-2-[(38)-3-hydroxypyrrolidin-1-yl]ethyl}-N-methyl-1-[4-(trifluoromethyl)phenyl]methanesulfonamide] | -2 | – | – | 53.6 | 1080 | – | 141
CN(C(=O)Cc1ccc(Cl)c(Cl)c1)[C@H](CN1CC(O)C1)c1ccc(OCCO)cc1 [Example 24, (S)-2-(3,4-dichlorophenyl)-N-(2-(3-hydroxyazetidin-1-yl)-1-(4-(2-hydroxyethoxy)phenyl)ethyl)-N-methylacetamide] | 40.1 | 2.71 | 20.8 | 0.78 | – | – | –
